Assay results: patent US20050245399A1, “Pyrazole derivatives as herbicidal compositions containing them” (ISHIHARA SANGYO KAISHA, LTD., priority 2004, published 2005)

Key:
Format in all cases: in vivo
[1] = test system: japanese bulrush (Scirpus juncoides: SCPJO); assay: Test Example 3 water application herbicidal activity (paddy), SCPJO; details: 63 g a.i./ha, water application under submerged condition at 0.5 leaf stage, visually observed 14th day after application; 0 = untreated control, 100 = complete kill
Description: (§1) Paddy field soil was put into a 1/1,000,000 ha pot and seeds of barnyardgrass (Echinochiloa oryzicola: ECHOR) and japanese bulrush (Scirpus juncoides: SCPJO) were sown and slightly covered with soil. Then the pot was left to stand still in a greenhouse in a state where the depth of flooding water was from 0.5 to 1 cm, and one day later, tubers of japanese ribbon wapato (Sagittaria pygmaea: SA GPY) were planted. Thereafter, the depth of flooding water was maintained at a level of from 3 to 4 cm, and when barnyardgrass and japanese bulrush reached a 0.5 leaf stage, an aqueous diluted solution of a wettable powder or emulsifiable concentrate having the compound of the present invention formulated in accordance with a usual formulation method, was uniformly applied under submerged condition by a pipette so that the dose of the active ingredient would be at a predetermined level. On the other hand, paddy filed soil was put into a 1/1,000,000 ha pot and puddled and leveled, and the depth of flooding water was from 3 to 4 cm. One day later, rice (Oryza sativa L.: ORYSA) of 2 leaf stage was transplanted in a depth of 3 cm. On the 4th day after the transplantation, the compound of the present invention was applied in the same manner as described above. On the 14th day after the application of the herbicide, the growth of barnyardgrass, japanese burlush and japanese ribbon wapato was visually observed and on the 21st day after the application of the herbicide, the growth of rice was visually observed, and the herbicidal effects were evaluated by growth controlling degrees (%) ranging from 0 (equivalent to the untreated control) to 100 (complete kill), whereby the results shown in Table 6, were obtained. Compound Nos. in Table 6 correspond to Compound Nos. in Table 1 and 2 given hereinbefore.

[2] = test system: soybean (Glycine max Merr.), GLXMA; assay: Test Example 2 post-emergence (foliage treatment) herbicidal activity, GLXMA
Method in brief: (§2)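 Foliar spray of formulated compound (500 L/ha dilution water, 0.1% v/v spreader) onto young potted plants at defined leaf stages. Scored 0-100% by visual inspection 20-23 d post-spray.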

[3] = test system: wheat (Triticum aestivum L.), TRZAX; assay: Test Example 2 post-emergence (foliage treatment) herbicidal activity, TRZAX
Method in brief: as §2

[4] = test system: green foxtail (Setaria viridis L.), SETVI; assay: Test Example 2 post-emergence (foliage treatment) herbicidal activity, SETVI
Method in brief: as §2

[5] = test system: prickly sida (Sida spinosa L.), SIDSP; assay: Test Example 2 post-emergence (foliage treatment) herbicidal activity, SIDSP
Method in brief: as §2

[6] = test system: japanese ribbon wapato (Sagittaria pygmaea: SA GPY); assay: Test Example 3 water application herbicidal activity (paddy), SAGPY; details: 63 g a.i./ha, water application under submerged condition, tubers planted, visually observed 14th day after application; 0 = untreated control, 100 = complete kill
Description: as §1

[7] = test system: barnyardgrass (Echinochloa crus-galli L.), ECHCG; assay: Test Example 2 post-emergence (foliage treatment) herbicidal activity, ECHCG
Method in brief: (§3)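 Visual growth-control score (0 = untreated, 100 = complete kill) taken 20th-23rd day after a foliar spray. Seedlings were grown in upland field soil and treated at leaf stage: barnyardgrass 1.1-2.1, crabgrass 1.0-2.0, redroot pigweed 0.1-1.5, rice 1.0-2. Spray volume was 500 L/ha water with 0.1% (v/v) agricultural spreader.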

[8] = test system: corn (Zea mays L.), ZEAMX; assay: Test Example 2 post-emergence (foliage treatment) herbicidal activity, ZEAMX
Method in brief: as §2

[9] = test system: rice (Oryza sativa L.), ORYSA; assay: Test Example 2 post-emergence (foliage treatment) herbicidal activity, ORYSA
Method in brief: as §3

[10] = test system: crabgrass (Digitaria sanguinalis L.), DIGSA; assay: Test Example 2 post-emergence (foliage treatment) herbicidal activity, DIGSA
Method in brief: as §3

[11] = test system: redroot pigweed (Amaranthus retroflexus L.), AMARE; assay: Test Example 2 post-emergence (foliage treatment) herbicidal activity, AMARE
Method in brief: as §3

[12] = test system: barnyardgrass (Echinochiloa oryzicola: ECHOR); assay: Test Example 3 water application herbicidal activity (paddy), ECHOR; details: 63 g a.i./ha, water application under submerged condition at 0.5 leaf stage, visually observed 14th day after application; 0 = untreated control, 100 = complete kill
Description: as §1

[13] = test system: rice (Oryza sativa L.: ORYSA); assay: Test Example 3 water application herbicidal activity (paddy), transplanted rice ORYSA; details: 63 g a.i./ha, water application 4th day after transplantation of 2 leaf stage rice, visually observed 21st day after application; 0 = untreated control, 100 = complete kill
Description: as §1

[14] = test system: velvetleaf (Abutilon theophrasti), ABUTH; assay: Test Example 2 post-emergence (foliage treatment) herbicidal activity, ABUTH
Method in brief: as §2

[15] = test system: barnyardgrass (Echinochloa crus-galli L.): ECHCG; assay: Test Example 1 pre-emergence herbicidal activity, ECHCG; details: visually observed 20th to 23rd day after application
Method in brief: (§4)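 Pre-emergence soil spray: wettable powder or emulsifiable concentrate diluted in water (500 L/ha) applied one day after sowing in upland field soil. Visual growth-control rating (%) on days 20–23, 0 = untreated control, 100 = complete kill.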

[16] = test system: prickly sida (Sida spinosa L.): SEDSP; assay: Test Example 1 pre-emergence herbicidal activity, SIDSP; details: visually observed 20th to 23rd day after application
Method in brief: as §4

[17] = test system: rice (Oryza sativa L.): ORYSA; assay: Test Example 1 pre-emergence herbicidal activity, ORYSA; details: visually observed 20th to 23rd day after application
Method in brief: as §4

[18] = test system: green foxtail (Setaria viridis L.): SETVI; assay: Test Example 1 pre-emergence herbicidal activity, SETVI; details: visually observed 20th to 23rd day after application
Method in brief: as §4

[19] = test system: corn (Zea mays L.): ZEAMX; assay: Test Example 1 pre-emergence herbicidal activity, ZEAMX; details: visually observed 20th to 23rd day after application
Method in brief: as §4

[20] = test system: crabgrass (Digitaria sanguinalis L.): DIGSA; assay: Test Example 1 pre-emergence herbicidal activity, DIGSA; details: visually observed 20th to 23rd day after application
Method in brief: as §4

[21] = test system: redroot pigweed (Amaranthus retroflexus L.): AMARE; assay: Test Example 1 pre-emergence herbicidal activity, AMARE; details: visually observed 20th to 23rd day after application
Method in brief: as §4

[22] = test system: soybean (Glycine max Merr.): GLXMA; assay: Test Example 1 pre-emergence herbicidal activity, GLXMA; details: visually observed 20th to 23rd day after application
Method in brief: as §4

[23] = test system: wheat (Triticum aestivum L.): TRZAX; assay: Test Example 1 pre-emergence herbicidal activity, TRZAX; details: visually observed 20th to 23rd day after application
Method in brief: as §4

[24] = test system: velvetleaf (Abutilon theophrasti): ABUTH; assay: Test Example 1 pre-emergence herbicidal activity, ABUTH; details: visually observed 20th to 23rd day after application
Method in brief: as §4

| Structure (SMILES) | growth controlling degrees (%) SCPJO [1] | growth controlling degrees (%) SAGPY [6] | growth controlling degrees (%) ECHOR [12] | growth controlling degrees (%) ORYSA [13] | growth controlling degree, GLXMA ([2]; 63 g a.i./ha) | Pre-emergence Herbicidal Activity ECHCG (growth controlling degree) ([15]; Rate 63 g a.i./ha) | growth controlling degree, TRZAX ([3]; 63 g a.i./ha) | Pre-emergence Herbicidal Activity ORYSA (growth controlling degree) ([17]; Rate 63 g a.i./ha) | Pre-emergence Herbicidal Activity SETVI (growth controlling degree) ([18]; Rate 63 g a.i./ha) | Pre-emergence Herbicidal Activity ZEAMX (growth controlling degree) ([19]; Rate 63 g a.i./ha) | Pre-emergence Herbicidal Activity DIGSP (growth controlling degree) ([20]; Rate 63 g a.i./ha) | Pre-emergence Herbicidal Activity AMARE (growth controlling degree) ([21]; Rate 63 g a.i./ha) | Pre-emergence Herbicidal Activity GLXMA (growth controlling degree) ([22]; Rate 63 g a.i./ha) | growth controlling degree, SIDSP ([5]; 63 g a.i./ha) | Pre-emergence Herbicidal Activity TRZAX (growth controlling degree) ([23]; Rate 63 g a.i./ha) | growth controlling degree, ECHCO ([7]; 63 g a.i./ha) | growth controlling degree, ZEAMX ([8]; 63 g a.i./ha) | growth controlling degree, ORYSA ([9]; 63 g a.i./ha) | growth controlling degree, DIGSP ([10]; 63 g a.i./ha) | growth controlling degree, ABUTH ([14]; 63 g a.i./ha) | also measured |
| --- | --- | --- | --- | --- | --- | --- | --- | --- | --- | --- | --- | --- | --- | --- | --- | --- | --- | --- | --- | --- | --- |
| COc1c(Cl)cc(F)c(-c2nn(C)c(OC(F)F)c2Cl)c1[N+](=O)[O-] [Compound 2-21, 4-chloro-3-(4-chloro-6-fluoro-3-methoxy-2-nitrophenyl)-5-(difluoromethoxy)-1-methyl-1H-pyrazole] | 98% | 100% | 100% | 40% | – | – | – | – | – | – | – | – | – | – | – | – | – | – | – | – | growth controlling degree, GLXMA ([2]; 31 g a.i./ha): 90%; growth controlling degree, TRZAX ([3]; 31 g a.i./ha): 40%; growth controlling degree, SETVI ([4]; 31 g a.i./ha): 100%; growth controlling degree, SIDSP ([5]; 31 g a.i./ha): 100%; growth controlling degree, ECHCO ([7]; 31 g a.i./ha): 100%; growth controlling degree, ZEAMX ([8]; 31 g a.i./ha): 80%; growth controlling degree, ORYSA ([9]; 31 g a.i./ha): 90%; growth controlling degree, DIGSP ([10]; 31 g a.i./ha): 95%; growth controlling degree, AMARE ([11]; 31 g a.i./ha): 100%; growth controlling degree, ABUTH ([14]; 31 g a.i./ha): 100% |
| COc1c(Cl)cc(F)c(-c2nn(C)c(OC(F)F)c2Cl)c1NC(=O)c1ccc(C#N)cc1 [Compound 1-32] | 70% | 100% | 100% | 50% | 80% | 95% | 50% | 60% | 100% | 10% | 100% | 100% | 10% | 100% | 10% | 95% | 95% | 90% | 70% | 100% | Pre-emergence Herbicidal Activity SIDSP (growth controlling degree) ([16]; Rate 63 g a.i./ha): 100%; growth controlling degree, AMARE ([11]; 63 g a.i./ha): 100%; Pre-emergence Herbicidal Activity ABUTH (growth controlling degree) ([24]; Rate 63 g a.i./ha): 100% |
| Cn1nc(-c2c(F)cc(Cl)c(OC(F)F)c2NS(C)(=O)=O)c(Cl)c1OC(F)F [Compound 1-84] | 90% | 95% | 60% | 30% | 50% | 0% | 0% | 10% | 20% | 0% | 50% | 70% | 0% | 70% | 0% | 20% | 20% | 10% | 0% | 80% | Pre-emergence Herbicidal Activity SIDSP (growth controlling degree) ([16]; Rate 63 g a.i./ha): 0%; growth controlling degree, SETVI ([4]; 63 g a.i./ha): 10%; Pre-emergence Herbicidal Activity ABUTH (growth controlling degree) ([24]; Rate 63 g a.i./ha): 0% |
| COc1c(Cl)cc(F)c(-c2nn(C)c(OC(F)F)c2Cl)c1N(C(=O)OCCCl)C(=O)OCCCl [Compound 1-52] | 50% | 0% | 100% | 20% | 30% | – | 10% | – | – | – | – | – | – | 90% | – | 50% | 10% | 40% | 30% | 80% | Pre-emergence Herbicidal Activity ECHCG (growth controlling degree) ([15]; Rate 125 g a.i./ha): 0%; Pre-emergence Herbicidal Activity SIDSP (growth controlling degree) ([16]; Rate 125 g a.i./ha): 0%; Pre-emergence Herbicidal Activity ORYSA (growth controlling degree) ([17]; Rate 125 g a.i./ha): 0%; Pre-emergence Herbicidal Activity SETVI (growth controlling degree) ([18]; Rate 125 g a.i./ha): 50%; Pre-emergence Herbicidal Activity ZEAMX (growth controlling degree) ([19]; Rate 125 g a.i./ha): 0%; Pre-emergence Herbicidal Activity DIGSP (growth controlling degree) ([20]; Rate 125 g a.i./ha): 30%; Pre-emergence Herbicidal Activity AMARE (growth controlling degree) ([21]; Rate 125 g a.i./ha): 100%; Pre-emergence Herbicidal Activity GLXMA (growth controlling degree) ([22]; Rate 125 g a.i./ha): 0%; growth controlling degree, SETVI ([4]; 63 g a.i./ha): 30%; Pre-emergence Herbicidal Activity TRZAX (growth controlling degree) ([23]; Rate 125 g a.i./ha): 0%; Pre-emergence Herbicidal Activity ABUTH (growth controlling degree) ([24]; Rate 125 g a.i./ha): 0% |
| CCOC(=O)Nc1c(OC)c(Cl)cc(F)c1-c1nn(C)c(OC(F)F)c1Cl [Compound 1-273] | 0% | 0% | 70% | 30% | 60% | 0% | 20% | 10% | 20% | 0% | 30% | 80% | 0% | 90% | 0% | 30% | 10% | 10% | 20% | 98% | growth controlling degree, AMARE ([11]; 63 g a.i./ha): 100%; Pre-emergence Herbicidal Activity ABUTH (growth controlling degree) ([24]; Rate 63 g a.i./ha): 10% |
